The results in this text go back to patent US12410185B2, “Compounds targeting mutant calreticulin” (MYELOPRO DIAGNOSTICS AND RESEARCH GmbH, priority 2018, dated 2025).

For assay [1], the system named is Ba/F3-MPL CALR del52/WT cells mixed with Ba/F3-MPL CALR WT cells. The experiment in a line: two-color competition assay, 12 days. It counts as cell-based, mouse. The following applies: in the presence of TPO, compared to DMSO control. As to the method:
FIG. 10: Competition assay of hematoxylin treatment in Ba/F3-MPL cells. Ba/F3-MPL CALR WT (GFP negative) and Ba/F3-MPL CALR del52/WT (GFP positive) cells were mixed and underwent hematoxylin treatment for 12 days. Drug and cytokine were refreshed every 3 days. Percentage of GFP positive cells were recorded by FACs.
To determine long-term viability, a two-color competition assay was used. Cell lines were transduced with pMSCV-IRES-GFP/mCherry construct, and the fluorescence-positive cells were sorted by a SH800Z Cell Sorter (Sony). GFP/mCherry-positive cell lines were mixed with their non-fluorescent control cells in a 1:1 ratio and underwent compound treatment for 3-12 days. Compounds and cytokines were refreshed every 3 days. Cell samples were analyzed at each time point by a BD LSRFortessa™ cell analyzer (BD Biosciences).

The subject of the next assay is mutant calreticulin. In words: Western blot analysis of hematoxylin-resistant clones. It is filed as cell-based, mouse. The settings on record: 24 h treatment. How it is done: FIG. 22: Western blot analysis of hematoxylin resistant clones. All cells were treated for 24 h with hematoxylin before collection.
Ba/F3-MPL CALR del79/WT and CALR del37/del37 cell lines were cultured with 20 uM of hematoxylin with or without 5% TPO continuously for 4 weeks. The cells were passaged every 3 days and seeded at 0.5 million per well in 6-well plates with addition of fresh hematoxylin and cytokine.
2 million Ba/F3-MPL CALR WT or mutant cells were treated with hematoxylin or the equivalent volume of DMSO in a total volume of 15 ml of RPMI media in T75 flasks (Thermal Fisher Scientific). Cells were collected and washed with PBS before being lysed in whole cell lysis buffer containing 20 mM HEPES, 20% glycerol, 50 mM KCl, 400 mM NaCl, 1 mM EDTA, 1 mM DTT, 5 mM Na orthovanadate, 0.5% NP40, 0.1% Tween 20, supplemented with cOmplete™, Mini, EDTA-free Protease Inhibitor Cocktail (Sigma) and PhosSTOP™ (Sigma). Samples were rotated at 4° C. for 20 min prior to centrifugation at […] for 20 min. The soluble fraction of the sample was collected. Protein concentration was quantified by the Bio-Rad Protein Assay (Bio-Rad) according to the manufacturer's instructions and measured by a SpectraMax Microplate Reader (Molecular Devices). […] Mutant calreticulin was detected by a polyclonal rabbit antibody against the mutant specific C-terminal peptide (Myelopro). […]
On the technique in general: A western blot detects proteins with antibodies after separation by electrophoresis.

Regarding `Oc1cc2c(cc1O)[C@@H]1c3ccc(O)c(O)c3OC[C@]1(O)C2` [hematoxylin, Hematoxylin], the “depletion of CALR mutant cells in co-cultivation with CALR WT cells” value in assay [1] was “almost completely depleted”. The “compound-induced down-regulation of mutant calreticulin in resistant cell lines” value in the assay with mutant calreticulin is recorded as “resistance towards the compound-induced down-regulation”.
